Experimental findings from patent US12497362B2, “Cyclopentapyrrole orexin receptor agonists” (Merck Sharp & Dohme LLC, priority 2020, dated 2025) are described below.

One may read the Emax as the size of the effect at its maximum, as opposed to the concentration needed.

The target in the test is T1, human OX2R (Homo sapiens, UniProt O43614).
T1 construct: expressed in transfected cells; host or cells: CHO (Chinese hamster ovary) cells, grown under G418 selection
T1 sequence (O43614 1-444): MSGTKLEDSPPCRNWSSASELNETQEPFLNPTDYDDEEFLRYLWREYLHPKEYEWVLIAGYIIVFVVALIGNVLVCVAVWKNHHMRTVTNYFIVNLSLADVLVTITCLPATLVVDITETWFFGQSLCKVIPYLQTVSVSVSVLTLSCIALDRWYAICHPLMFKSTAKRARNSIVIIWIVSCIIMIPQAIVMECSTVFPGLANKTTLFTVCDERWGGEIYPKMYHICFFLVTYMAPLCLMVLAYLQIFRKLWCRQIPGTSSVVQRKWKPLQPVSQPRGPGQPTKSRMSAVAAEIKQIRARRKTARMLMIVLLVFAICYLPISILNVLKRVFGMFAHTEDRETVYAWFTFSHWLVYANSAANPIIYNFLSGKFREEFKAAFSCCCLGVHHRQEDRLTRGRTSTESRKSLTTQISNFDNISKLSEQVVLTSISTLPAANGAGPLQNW
In words: IPOne (IP-1 accumulation) orexin receptor agonist assay in CHO cells expressing human OX2R. The settings on record: hOX2R IP-One assay, percent of mean max effect of a reference compound at 1 uM with 100% activity established by comparison to Orexin A. In kind it is cell-based. An excerpt:
The utility of the compounds in accordance with the present invention as orexin receptor OX1R and/or OX2R agonists may be readily determined without undue experimentation by methodology well known in the art. Both the OX1R and/or OX2R G-coupled protein receptors (GPCRs) couple through the Gαq signaling pathway, which ultimately promotes calcium mobilization via inositol triphosphate (IP3) production. The half-life of IP-3 is relatively short, being rapidly metabolized to inositol monophosphate (IP-1), which can be readily detected using a commercially available assay kit (IP-One; Cisbio; cat #621PAPEC) coupled with a cell line expressing the target receptor(s) of interest. The utility of the compounds in accordance with the present invention as orexin receptor OX1R and/or OX2R agonists may be determined utilizing this assay.
In a typical experiment, the OX1 and OX2 receptor agonist activity is determined in accordance with the following general experimental method. Chinese hamster ovary (CHO) cells expressing human OX1R and/or the human OX2R were grown in Iscove's modified DMEM containing glutaMAX™, 1% G418, 100 U/mL penicillin, 100 μg/mL streptomycin and 10% heat-inactivated qualified fetal bovine serum (FBS). The OX2R cells were seeded at 10,000 cells/well/50 μL and the OX1R cells were seeded at 20,000 cells/well/50 μL into 384-well white tissue culture plates (Greiner; cat #781080). All cell/media reagents were from GIBCO-Invitrogen Corp. The seeded cell plate(s) were incubated at 37° C. with 5% CO2 and 85% humidity for 20-24 hours. On the day of the assay, assay-ready compound plates were prepared using an acoustic liquid handler (ECHO; Labcyte), which dispensed sufficient volume of test compound stock (10 mM in DMSO) or 100% DMSO to prepare 10 point, ½-log dilutions in a final volume of 202.5 nL/well in all test wells of a 384-well diamond plate (Labcyte). Following completion of assay-ready plates, importantly, the next three steps were performed with minimal delay: 1) 20 μl of 1× stimulation buffer was added to the compound plate using a Multidrop Combi (small cassette, Thermo Fisher Scientific cat #24073290); 2) culture medium was removed from the cell plate using the Bluewasher plate washer (gentle spin; BlueCatBio); 3) 14 μl of compound/stimulation buffer mixture was added to the cell plate using a Bravo liquid handler (Agilent) prior to incubating cell plates at 37° C. with 5% CO2 and 85% humidity for 1 or 2 hours (OX1R and OX2R, respectively). During this incubation, IP-one detection reagents were prepared (38:1:1 lysis buffer:D2:AB-cryptate reagents). Six μL of mixed detection reagents were added to the cell plate using a Multidrop Combi (small cassette, Thermo Fisher Scientific cat #24073290) and incubated 60 minutes at room temperature in the dark. Fluorescence signal was detected using an Envision plate reader (Perkin Elmer) [LANCE/DELFIA Dual Enh (Em: APC 665; Ex: Cy5 620)].
For each compound, data were fit to a four parameter logistic fit (ActivityBase software) and the EC50 was reported as the inflection point of the resulting curve. Percent effect for each test compound was determined as the percentage of sample raw value/mean max effect, where the mean max effect was derived from the mean raw value of 32 control wells per assay plate (using Orexin A (cat #003-30) at 1 μM for human OX1R and a reference compound at 1 uM with 100% activity previously established by comparison to Orexin A for human OX2R). The intrinsic orexin receptor agonist activity of a compound which may be used in the present invention may be determined by these assays.
As for `COC(=O)N1[C@@H]2CCC[C@@H]2[C@H](NS(C)(=O)=O)[C@@H]1CO[C@H]1CC[C@@H](c2cccc(F)c2)CC1` [Example 1, methyl (2R,3S,3aS,6aR)-2-((((1s,4S)-4-(3-fluorophenyl)cyclohexyl)oxy)methyl)-3-(methylsulfonamido)hexahydrocyclopenta[b]pyrrole-1(2H)-carboxylate], the Emax amounted to 101%.

Take `COC(=O)N1[C@@H]2COC[C@@H]2[C@H](NS(=O)(=O)N(C)C)[C@@H]1CO[C@H]1CC[C@@H](c2cccc(F)c2)CC1` [Example 5, methyl (2R,3S,3aS,6aS)-3-((N,N-dimethylsulfamoyl)amino)-2-((((1s,4S)-4-(3-fluorophenyl)cyclohexyl)oxy)methyl)hexahydro-1H-furo[3,4-b]pyrrole-1-carboxylate]: the Emax worked out at 101%.

Regarding `COC(=O)N1[C@@H]2CCC[C@@H]2[C@H](NS(C)(=O)=O)[C@@H]1CO[C@H]1CC[C@@H](c2ccccc2)CC1` [Example 7, Methyl (2R,3S,3aS,6aR)-3-(methylsulfonamido)-2-((((1s,4S)-4-phenylcyclohexyl)oxy)-methyl)hexahydrocyclopenta[b]pyrrole-1(2H)-carboxylate], the Emax amounted to 101%.

For `COC(=O)N1[C@@H]2CC[C@@H]2[C@H](NS(C)(=O)=O)[C@@H]1CO[C@H]1CC[C@@H](c2ccccc2)CC1` [Example 11, methyl (1R,3R,4S,5S)-4-(methylsulfonamido)-3-((((1s,4S)-4-phenylcyclohexyl)oxy)methyl)-2-azabicyclo[3.2.0]heptane-2-carboxylate], the Emax is 103%.

Molecule `COC(=O)N1[C@@H]2COC[C@@H]2[C@H](NS(C)(=O)=O)[C@@H]1CO[C@H]1CC[C@@H](c2cccc(F)c2)CC1` [Example 4, methyl (2R,3S,3aS,6aS)-2-((((1s,4S)-4-(3-fluorophenyl)cyclohexyl)oxy)methyl)-3-(methylsulfonamido)hexahydro-1H-furo[3,4-b]pyrrole-1-carboxylate] registered an Emax of 101%.

In turn, `CNS(=O)(=O)N[C@H]1[C@H]2CCC[C@H]2N(C(=O)OC)[C@H]1CO[C@H]1CC[C@@H](c2cccc(F)c2)CC1` [Example 3, methyl (2R,3S,3aS,6aR)-2-((((1s,4S)-4-(3-fluorophenyl)cyclohexyl)oxy)methyl)-3-((N-methylsulfamoyl)amino)hexahydrocyclopenta[b]pyrrole-1(2H)-carboxylate] showed an Emax of 98%.

`CC(C)OC(=O)N1[C@@H]2CCC[C@@H]2[C@H](NS(C)(=O)=O)[C@@H]1COC1CCN(c2ncc(F)cn2)CC1` [Example 10, Isopropyl (2R,3S,3aS,6aR)-2-(((1-(5-fluoropyrimidin-2-yl)piperidin-4-yl)oxy)methyl)-3-(methylsulfonamido)hexahydrocyclopenta[b]pyrrole-1(2H)-carboxylate] had an Emax of 103%.

Turning to `COC(=O)N1[C@@H]2CCC[C@@H]2[C@H](NS(C)(=O)=O)[C@@H]1COC1CCN(c2ncc(F)cn2)CC1` [Example 9, Methyl (2R,3S,3aS,6aR)-2-(((1-(5-fluoropyrimidin-2-yl)piperidin-4-yl)oxy)methyl)-3-(methylsulfonamido)hexahydrocyclopenta[b]pyrrole-1(2H)-carboxylate], the Emax worked out at 97%.

As to `COC(=O)N1[C@@H]2CCC[C@@H]2[C@H](NS(=O)(=O)N(C)C)[C@@H]1CO[C@H]1CC[C@@H](c2ccccc2)CC1` [Example 8, Methyl (2R,3S,3aS,6aR)-3-((N,N-dimethylsulfamoyl)amino)-2-((((1s,4S)-4-phenyl-cyclohexyl)oxy)methyl)hexahydrocyclopenta[b]pyrrole-1(2H)-carboxylate], the Emax amounted to 98%.

Regarding `COC(=O)N1[C@@H]2COC[C@@H]2[C@H](NS(=O)(=O)CF)[C@@H]1CO[C@H]1CC[C@@H](c2cccc(F)c2)CC1` [Example 6, methyl (2R,3S,3aS,6aS)-3-((fluoromethyl)sulfonamido)-2-((((1s,4S)-4-(3-fluorophenyl)-cyclohexyl)oxy)methyl)hexahydro-1H-furo[3,4-b]pyrrole-1-carboxylate], the Emax worked out at 102%.

As for `COC(=O)N1[C@@H]2CCC[C@@H]2[C@H](NS(=O)(=O)N(C)C)[C@@H]1CO[C@H]1CC[C@@H](c2cccc(F)c2)CC1` [Example 2, methyl (2R,3S,3aS,6aR)-3-((N,N-dimethylsulfamoyl)amino)-2-((((1s,4S)-4-(3-fluorophenyl)cyclohexyl)oxy)methyl)hexahydrocyclopenta[b]pyrrole-1(2H)-carboxylate], the Emax stood at 101%.
